In test [1] the target is T1, CaM (Bos taurus, UniProt P62157).
T1 construct: made in house; host or cells: E. coli BL21 (DE3)
Put plainly: Competition pull-down with native ligand TRPV1-Ct15. The settings on record: H14 library; competitor peptide 200 µM; read-out: Surface mapping KD (apparent), competition. It counts as binding, bovine.

For the next test, the target named is T2, RecQ-WH (Escherichia coli, UniProt P15043).
T2 construct: coding for residues 408– 523 of E. coli RecQ; made in house; host or cells: E. coli BL21(DE3)
Put plainly: Pull-down assay with immobilized protein and LSM libraries. On the set-up: species or system E. coli. The conditions noted are these: H14 library; 1:1 binding assumed; read-out: Surface mapping KD (apparent). Summed up:
(§1)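 His-tagged protein immobilized on Co-NTA resin (64 µM) in 20 mM HEPES pH 7.4, 150 mM NaCl, equilibrated 30 min at room temperature with foldamer LSM sublibraries at equimolar total concentration. Unbound fractions quantified by HPLC-MS versus protein-free resin control; apparent KD assumes 1:1 binding.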

The target of test [2] is T3, Gal-1 (Homo sapiens, UniProt P09382).
T3 construct: made in house; host or cells: E. coli BL21(DE3)
The description is as above. It counts as binding. The settings on record: H14 library; 1:1 binding assumed; read-out: Surface mapping KD (apparent). Summed up: as §1

Test [3] concerns the target T4, S100B (Homo sapiens, UniProt P04271).
T4 construct: made in house; host or cells: Escherichia coli BL21(DE3)
T4 sequence (P04271 1-92): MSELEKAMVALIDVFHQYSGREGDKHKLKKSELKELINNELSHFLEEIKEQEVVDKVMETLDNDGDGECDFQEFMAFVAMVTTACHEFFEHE
The test is described as above. The settings on record: for Kd: H14 library, 1:1 binding assumed, read-out: Surface mapping KD (apparent). It counts as binding. The method in brief: (§2)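 Buffers were HEPES pH 7.4 with 150 mM NaCl, plus 1 mM TCEP and 1 mM CaCl2 (50 mM HEPES) for S100A4 and S100B, 1 mM TCEP for Gal-1, and no additive for RecQ-WH. Immobilized protein at 64 µM was equilibrated 30 min with the LSM sublibrary, and unbound probes were measured by LC-MS.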

Another test deals with T5, S100A4 (Homo sapiens, UniProt P26447).
T5 construct: made in house; host or cells: Escherichia coli BL21(DE3)
The test is described as above. Type of test: binding. The conditions noted are these: for Kd: H14 library, 1:1 binding assumed, read-out: Surface mapping KD (apparent). The method in brief:
as §2

Test [4] concerns the target T4, S100B. Put plainly: Competition pull-down with native ligand RSK1 (689–735). Type of test: binding. The conditions noted are these: H14 library; competitor peptide 200 µM; read-out: Surface mapping KD (apparent), competition.
Test [5] concerns the target T3, Gal-1. Put plainly: Competition pull-down with lactose. It counts as binding. The settings on record: H14 library; lactose 10 mM; read-out: Surface mapping KD (apparent), competition. Summed up: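 His6-tagged proteins immobilized on Co-NTA resin at 64 µM final with 64-member LSM foldamer sublibraries (1 M each, as printed) in pH 7.4 HEPES/NaCl buffers (Ca2+/TCEP per target), 30 min RT; competitor peptides 200 µM final, lactose 10 mM for Gal-1. Bound fractions from LC-MS loss vs protein-free resin; KD assuming 1:1 binding.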

For test [6], the target named is T1, CaM. Put plainly: Pull-down assay with immobilized protein and LSM libraries. The settings on record: H14 library; 1:2 stoichiometry assumed; read-out: Surface mapping KD (apparent). Type of test: binding, bovine. Summed up: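 His-tagged protein immobilized on Co-NTA resin, equilibrated 30 min at room temperature with LSM sublibraries (64 members, […]), equimolar protein to total probe. CaM buffer: 20 mM HEPES pH 7.4, 150 mM NaCl, 5 mM CaCl2. Bound fractions from HPLC-MS loss of unbound probe versus protein-free resin control; Kd derived.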

[7] abbreviates: H14 probes selected for validation.

The text below walks through data of publication PMC8162404, “Proteomimetic surface fragments distinguish targets by function” (Chemical Science, 2020).

T5 sequence (P26447 whole entry): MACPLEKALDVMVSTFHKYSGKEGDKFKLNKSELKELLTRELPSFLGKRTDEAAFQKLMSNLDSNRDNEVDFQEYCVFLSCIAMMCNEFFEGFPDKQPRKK
T3 sequence (P09382 whole entry): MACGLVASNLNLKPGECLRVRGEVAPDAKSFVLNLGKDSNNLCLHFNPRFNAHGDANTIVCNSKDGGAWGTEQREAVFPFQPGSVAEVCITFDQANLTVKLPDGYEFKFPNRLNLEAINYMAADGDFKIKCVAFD
T2 sequence (P15043 408-523): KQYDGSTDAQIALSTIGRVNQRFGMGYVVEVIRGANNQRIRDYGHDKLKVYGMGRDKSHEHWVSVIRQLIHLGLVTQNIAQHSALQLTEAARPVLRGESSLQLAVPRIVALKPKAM

Turning to `CSCC[C@@H](CC(=O)N[C@H]1CCCC[C@@H]1C(=O)N[C@H]1CCCC[C@@H]1C(=O)N[C@H](CC(=O)N[C@H]1CCCC[C@@H]1C(N)=O)Cc1c[nH]c2ccccc12)NC(=O)[C@H]1CCCC[C@@H]1N` [H14 MW], the Kd at CaM [1] is 208 µM; at RecQ-WH it was 197 µM; on Gal-1 [2], 141 µM; at S100B [3] it was 44 µM; at S100A4, 41 µM; at S100B [4], 131 µM. The Kd on Gal-1 [5] came to 172 µM; on CaM [6], 2 µM.

For the compound `C[C@@H](O)[C@@H](CC(=O)N[C@H]1CCCC[C@@H]1C(N)=O)NC(=O)[C@H]1CCCC[C@@H]1NC(=O)[C@H]1CCCC[C@@H]1NC(=O)C[C@H](Cc1c[nH]c2ccccc12)NC(=O)[C@H]1CCCC[C@@H]1N` [H14 WT], the Kd was found to be 135 µM on CaM [1]; 165 µM on RecQ-WH; 107 µM on S100B [3]; 157 µM at S100A4; 242 µM on S100B [4]; 6 µM on CaM [6].

With `NC(=O)[C@H]1CCCC[C@@H]1NC(=O)C[C@H](Cc1ccccc1)NC(=O)[C@H]1CCCC[C@@H]1NC(=O)[C@H]1CCCC[C@@H]1NC(=O)C[C@H](CC(=O)O)NC(=O)[C@H]1CCCC[C@@H]1N` [H14 DF], the Kd at CaM [1] was found to be 220 µM; at RecQ-WH it was 288 µM; on S100B [3], 339 µM; on S100B [4], 130 µM; on Gal-1 [5], 388 µM.

For `CSCC[C@@H](CC(=O)N[C@H]1CCCC[C@@H]1C(=O)N[C@H]1CCCC[C@@H]1C(=O)N[C@H](CC(=O)N[C@H]1CCCC[C@@H]1C(N)=O)Cc1ccccc1)NC(=O)[C@H]1CCCC[C@@H]1N` [H14 MF], the Kd at CaM [1] stood at 133 µM; at RecQ-WH, 304 µM; on Gal-1 [2], 223 µM; on S100B [3] it was 85 µM; at S100A4, 23 µM; on S100B [4], 316 µM. In addition, the Kd amounted to 181 µM at Gal-1 [5] and 2 µM on CaM [6].

With `CSCC[C@@H](CC(=O)N[C@H]1CCCC[C@@H]1C(N)=O)NC(=O)[C@H]1CCCC[C@@H]1NC(=O)[C@H]1CCCC[C@@H]1NC(=O)C[C@H](CCCCN)NC(=O)[C@H]1CCCC[C@@H]1N` [H14 KM], the Kd on CaM [1] stood at 146 µM; at RecQ-WH, 459 µM; on S100B [3], 119 µM; on S100A4, 95 µM; at S100B [4], 140 µM; at CaM [6], 63 µM.

Consider `CC[C@H](C)[C@@H](CC(=O)N[C@H]1CCCC[C@@H]1C(=O)N[C@H]1CCCC[C@@H]1C(=O)N[C@H](CC(=O)N[C@H]1CCCC[C@@H]1C(N)=O)Cc1ccc(O)cc1)NC(=O)[C@H]1CCCC[C@@H]1N` [H14 IY], for which the Kd on RecQ-WH turned out to be 300 µM; on Gal-1 [2] it was 258 µM; on S100B [3] it was 74 µM; on S100A4 it was 20 µM; at S100B [4], 156 µM; at CaM [6], 15 µM.

On to `CSCC[C@@H](CC(=O)N[C@H]1CCCC[C@@H]1C(=O)N[C@H]1CCCC[C@@H]1C(=O)N[C@H](CC(=O)N[C@H]1CCCC[C@@H]1C(N)=O)C(C)C)NC(=O)[C@H]1CCCC[C@@H]1N` [H14 MV], for which the Kd on RecQ-WH was found to be 294 µM; on Gal-1 [2], 178 µM; at S100B [3], 118 µM; at S100A4, 21 µM; at S100B [4], 360 µM; at Gal-1 [5], 218 µM. In addition, the Kd on CaM [6] is 3 µM.

Take `CC(C)C[C@@H](CC(=O)N[C@H]1CCCC[C@@H]1C(=O)N[C@H]1CCCC[C@@H]1C(=O)N[C@H](CC(=O)N[C@H]1CCCC[C@@H]1C(N)=O)Cc1ccc(O)cc1)NC(=O)[C@H]1CCCC[C@@H]1N` [H14 LY]: the Kd at CaM [1] stood at 455 µM; at RecQ-WH it was 239 µM; at Gal-1 [2] it was 231 µM; on S100B [3] it was 85 µM; at S100A4 it was 26 µM; at S100B [4] it was 154 µM. Also, the Kd on CaM [6] turned out to be 10 µM.

For `C[C@@H](O)[C@@H](CC(=O)N[C@H]1CCCC[C@@H]1C(N)=O)NC(=O)[C@H]1CCCC[C@@H]1NC(=O)[C@H]1CCCC[C@@H]1NC(=O)C[C@H](Cc1ccccc1)NC(=O)[C@H]1CCCC[C@@H]1N` [H14 FT], the Kd came to 218 µM on RecQ-WH; 348 µM at Gal-1 [2]; 274 µM on S100B [3]; 135 µM on S100A4; 333 µM at S100B [4]; 11 µM at CaM [6].

On to `C[C@@H](CC(=O)N[C@H]1CCCC[C@@H]1C(N)=O)NC(=O)[C@H]1CCCC[C@@H]1NC(=O)[C@H]1CCCC[C@@H]1NC(=O)C[C@H](Cc1ccc(O)cc1)NC(=O)[C@H]1CCCC[C@@H]1N` [H14 YA], for which the Kd at CaM [1] turned out to be 366 µM; at RecQ-WH it was 329 µM; on Gal-1 [2], 342 µM; at S100A4, 217 µM; at S100B [4], 436 µM; on CaM [6] it was 15 µM.

Take `C[C@@H](CC(=O)N[C@H]1CCCC[C@@H]1C(N)=O)NC(=O)[C@H]1CCCC[C@@H]1NC(=O)[C@H]1CCCC[C@@H]1NC(=O)C[C@H](Cc1c[nH]c2ccccc12)NC(=O)[C@H]1CCCC[C@@H]1N` [H14 WA]: the Kd was 307 µM on CaM [1]; 293 µM at RecQ-WH; 58 µM at S100B [3]; 55 µM on S100A4; 220 µM at S100B [4]; 3 µM on CaM [6].

Consider `NC(=O)[C@H]1CCCC[C@@H]1NC(=O)C[C@H](Cc1ccccc1)NC(=O)[C@H]1CCCC[C@@H]1NC(=O)[C@H]1CCCC[C@@H]1NC(=O)C[C@H](CCC(=O)O)NC(=O)[C@H]1CCCC[C@@H]1N` [H14 EF], for which the Kd was 241 µM at RecQ-WH, 476 µM on S100B [3], 126 µM on S100B [4] and 430 µM on Gal-1 [5].

In the case of `NCCCC[C@@H](CC(=O)N[C@H]1CCCC[C@@H]1C(N)=O)NC(=O)[C@H]1CCCC[C@@H]1NC(=O)[C@H]1CCCC[C@@H]1NC(=O)C[C@H](Cc1ccccc1)NC(=O)[C@H]1CCCC[C@@H]1N` [H14 FK], the Kd at RecQ-WH came out at 424 µM; on Gal-1 [2], 154 µM; at S100B [3], 63 µM; at S100A4, 141 µM; at S100B [4], 391 µM; on Gal-1 [5], 153 µM. Besides, on CaM [6], the Kd was 4 µM.

Consider `CC(C)C[C@@H](CC(=O)N[C@H]1CCCC[C@@H]1C(N)=O)NC(=O)[C@H]1CCCC[C@@H]1NC(=O)[C@H]1CCCC[C@@H]1NC(=O)C[C@H](C)NC(=O)[C@H]1CCCC[C@@H]1N` [H14 AL], for which the Kd on RecQ-WH came out at 401 µM; on Gal-1 [2], 127 µM; on S100B [3] it was 108 µM; at S100A4, 7 µM; on S100B [4], 313 µM; on Gal-1 [5], 272 µM. The Kd on CaM [6] is 13 µM.

Consider `C[C@@H](O)[C@@H](CC(=O)N[C@H]1CCCC[C@@H]1C(=O)N[C@H]1CCCC[C@@H]1C(=O)N[C@H](CC(=O)N[C@H]1CCCC[C@@H]1C(N)=O)Cc1c[nH]c2ccccc12)NC(=O)[C@H]1CCCC[C@@H]1N` [H14 TW], for which the Kd was 288 µM on RecQ-WH; 143 µM at Gal-1 [2]; 47 µM on S100B [3]; 189 µM at S100A4; 258 µM on S100B [4]; 147 µM at Gal-1 [5]. Also, at CaM [6], the Kd is 16 µM. The “Binding” value at S100B [3] (H14 probes) is “binds”; at S100A4 (H14 probes), “does not”. The “Affinity class of probe (high, medium, low) in pull-down” value at S100B [3] (setting [7]) is “medium”; on S100A4 (setting [7]) it was “low”.

As for `CC(C)[C@@H](CC(=O)N[C@H]1CCCC[C@@H]1C(=O)N[C@H]1CCCC[C@@H]1C(=O)N[C@H](CC(=O)N[C@H]1CCCC[C@@H]1C(N)=O)Cc1ccc(O)cc1)NC(=O)[C@H]1CCCC[C@@H]1N` [H14 VY], the Kd is 115 µM on RecQ-WH; 318 µM on Gal-1 [2]; 110 µM at S100B [3]; 50 µM at S100A4; 167 µM at S100B [4]; 30 µM on CaM [6].

For `CSCC[C@@H](CC(=O)N[C@H]1CCCC[C@@H]1C(N)=O)NC(=O)[C@H]1CCCC[C@@H]1NC(=O)[C@H]1CCCC[C@@H]1NC(=O)C[C@H](CCSC)NC(=O)[C@H]1CCCC[C@@H]1N` [H14 MM], the Kd came to 448 µM on CaM [1]; 455 µM at RecQ-WH; 183 µM at Gal-1 [2]; 174 µM at S100B [3]; 14 µM on S100A4; 276 µM on S100B [4]. The Kd at CaM [6] came to 16 µM.
